Laboratory results published in patent publication US20230339970A1, “CASEIN KINASE 1 DELTA MODULATORS” (priority 2020, published 2023).

Assays:
[1] = target: T1, human recombinant GST cleaved CSNK1D (Homo sapiens, UniProt P48730); assay: Purified Enzyme Assay (ADP-Glo CSNK1D Kinase Assay); assay type: biochemical; conditions: 2 nM CSNK1D; peptide substrate 150 μM; ATP 20 μM; 45 minutes at room temperature
T1 construct: GST (cleaved yes); purchased University of Dundee clone DU 19064
Experimental: In this assay, CSNK1D phosphorylates a substrate peptide PLSRTL-pS-VASLPGL in the presence of ATP. […] This assay monitors CSNK1D kinase activity by measuring the amount of ADP produced in the assay.
The substrate mix is added to each well of a low volume, 384-well, white opaque plate. Test compounds were diluted in HBSS and added in a dose-response to the plate.
The total volume of each reaction is 5 ul (2 μL of substrate mix, 1 μL of diluted compounds, and 2 μL of human recombinant CSNK1D). The plates are incubated for 45 minutes at room temperature.
ADP was quantified using the ADP-Glo™ Kinase Assay. ADP-Glo Reagent (5 μL) was added to each well. After a 1 hour incubation at room temperature, Kinase Detection Reagent (10 μL) was added to each well and incubated for 30 minutes. […] The raw data from the Envision is used to calculate percent activity.

human CSNK1D = target: T2, human CSNK1D (Homo sapiens, UniProt P48730); assay: Whole Cell nBRET CSNK1D Binding Assay; conditions: living CHO cells stably expressing human CSNK1D tagged with nanoluciferase; NanoBret tracer 130 nM; 2 hours at 37 C
T2 construct: expressed in transfected cells
T2 sequence (P48730 whole entry): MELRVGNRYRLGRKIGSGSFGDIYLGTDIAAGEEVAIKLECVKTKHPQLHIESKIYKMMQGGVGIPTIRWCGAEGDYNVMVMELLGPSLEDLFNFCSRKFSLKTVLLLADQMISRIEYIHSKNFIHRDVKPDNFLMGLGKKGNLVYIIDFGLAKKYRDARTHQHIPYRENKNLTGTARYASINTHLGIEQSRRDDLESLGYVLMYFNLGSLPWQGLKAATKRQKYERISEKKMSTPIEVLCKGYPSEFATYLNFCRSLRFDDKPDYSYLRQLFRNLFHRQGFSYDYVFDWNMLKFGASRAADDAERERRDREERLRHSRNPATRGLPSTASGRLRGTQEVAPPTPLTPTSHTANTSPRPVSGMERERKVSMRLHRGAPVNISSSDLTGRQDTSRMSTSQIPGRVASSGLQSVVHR

T1 sequence (P48730 whole entry): as above

Compound | IC50 [1] | IC50 (human CSNK1D)
Cc1nc2cc(-c3c(-c4ccc(F)cn4)nn4c3COC(C)(C)C4)ccn2n1 [Example 386, 2-(5-Fluoropyridin-2-yl)-6,6-dimethyl-3-(2-methyl-[1,2,4]triazolo[1,5-a]pyridin-7-yl)-6,7-dihydro-4H-pyrazolo[5,1-c][1,4]oxazine] | 162 nM | 9660 nM
CC1(CF)CCc2c(-c3ccncc3)c(-c3ccc(F)cn3)nn2C1 (single isomer, unassigned) [Example 284, (*S)-6-(Fluoromethyl)-2-(5-fluoro-2-pyridyl)-6-methyl-3-(4-pyridyl)-5,7-dihydro-4H-pyrazolo[1,5-a]pyridine] | 6 nM | 68 nM
Fc1ccc(-c2nn3c(c2-c2c(F)cnc4[nH]ncc24)OCC2(CC2)C3)nc1 [Example 459, 3′-(5-Fluoro-1H-pyrazolo[3,4-b]pyridin-4-yl)-2′-(5-fluoropyridin-2-yl)-5′H,7′H-spiro[cyclopropane-1,6′-pyrazolo[5,1-b][1,3]oxazine]] | 4 nM | 80 nM
Cc1cc(-c2c(-c3ncc(F)cc3F)nn3c2COC(C)(C)C3)c2cn[nH]c2n1 [Example 167, 2-(3,5-Difluoropyridin-2-yl)-6,6-dimethyl-3-(6-methyl-1H-pyrazolo[3,4-b]pyridin-4-yl)-6,7-dihydro-4H-pyrazolo[5,1-c][1,4]oxazine] | 3 nM | 91 nM
CCn1ncc2cc(-c3c(-c4ccc(F)cn4)nn4c3OCC(C)C4)cnc21 (stereo not shown) [Example 444, 3-(1-Ethyl-1H-pyrazolo[3,4-b]pyridin-5-yl)-2-(5-fluoropyridin-2-yl)-6-methyl-6,7-dihydro-5H-pyrazolo[5,1-b][1,3]oxazine] | 67 nM | 1590 nM
Cc1cc(-c2c(-c3ccc(F)cn3)nn3c2CCC2C3C2(F)F)c2cn[nH]c2n1 (racemic) [Example 59, (Racemic) 6,6-Difluoro-2-(5-fluoropyridin-2-yl)-3-(6-methyl-1H-pyrazolo[3,4-b]pyridin-4-yl)-5,5a,6,6a-tetrahydro-4H-cyclopropa[e]pyrazolo[1,5-a]pyridine] | 4 nM | 82 nM
Fc1cc(-c2nn3c(c2-c2ccnc4[nH]ncc24)COCC3)ccc1Cl [Example 72, 2-(4-Chloro-3-fluoro-phenyl)-3-(1H-pyrazolo[3,4-b]pyridin-4-yl)-6,7-dihydro-4H-pyrazolo[5,1-c][1,4]oxazine] | 54 nM | 482 nM
Cc1cc(-c2c(-c3ccc(F)cn3)nn3c2COCC3)c2cn[nH]c2n1 [Example 79, 2-(5-Fluoro-2-pyridyl)-3-(6-methyl-1H-pyrazolo[3,4-b]pyridin-4-yl)-6,7-dihydro-4H-pyrazolo[5,1-c][1,4]oxazine] | 7 nM | 227 nM
Cc1cc(-c2c(-c3ccc(F)cc3)nn3c2OCC2(C3)CC2(F)F)c2cn[nH]c2n1 (single isomer, unassigned) [Example 475, (*R)-2,2-Difluoro-2′-(4-fluorophenyl)-3′-(6-methyl-1H-pyrazolo[3,4-b]pyridin-4-yl)-5′H,7′H-spiro[cyclopropane-1,6′-pyrazolo[5,1-b][1,3]oxazine]] | 6 nM | 36 nM
CC1(C(F)(F)F)Cn2nc(-c3ccc(F)cc3)c(-c3ccnc4[nH]ncc34)c2CO1 (single isomer, unassigned) [Example 416, (*R)-2-(4-Fluorophenyl)-6-methyl-3-(1H-pyrazolo[3,4-b]pyridin-4-yl)-6-(trifluoromethyl)-6,7-dihydro-4H-pyrazolo[5,1-c][1,4]oxazine] | 17 nM | 118 nM
CC1(C)COc2c(-c3ccnc4cc[nH]c34)c(-c3ccc(F)cn3)nn2C1 [Example 450, 2-(5-Fluoro-2-pyridyl)-6,6-dimethyl-3-(1H-pyrrolo[3,2-b]pyridin-7-yl)-5,7-dihydropyrazolo[5,1-b][1,3]oxazine] | 75 nM | 1050 nM
COCC1(F)CCc2c(-c3cc(C)nc4[nH]ncc34)c(-c3ccc(F)cn3)nn2C1 (single isomer, unassigned) [Example 305, (*R)-4-[6-Fluoro-2-(5-fluoro-2-pyridyl)-6-(methoxymethyl)-5,7-dihydro-4H-pyrazolo[1,5-a]pyridin-3-yl]-6-methyl-1H-pyrazolo[3,4-b]pyridine] | 89 nM | 2850 nM
Fc1ccc(-c2nn3c(c2-c2ccnc4[nH]ncc24)CO[C@H](C2CC2)C3)nc1 (single isomer, unassigned) [Example 108, (*R)-6-Cyclopropyl-2-(5-fluoropyridin-2-yl)-3-(1H-pyrazolo[3,4-b]pyridin-4-yl)-6,7-dihydro-4H-pyrazolo[5,1-c][1,4]oxazine] | 41 nM | 681 nM
Cc1cc(-c2c(-c3cscn3)nn3c2COC(C)(C)C3)c2cn[nH]c2n1 [Example 125, 6,6-Dimethyl-3-(6-methyl-1H-pyrazolo[3,4-b]pyridin-4-yl)-2-(thiazol-4-yl)-6,7-dihydro-4H-pyrazolo[5,1-c][1,4]oxazine] | 12 nM | 270 nM
Cc1n[nH]c2nccc(-c3c(-c4ccc(F)cc4)nn4c3COC(C(F)(F)F)C4)c12 (single isomer, unassigned) [Example 372, (*S)-2-(4-Fluorophenyl)-3-(3-methyl-1H-pyrazolo[3,4-b]pyridin-4-yl)-6-(trifluoromethyl)-6,7-dihydro-4H-pyrazolo[5,1-c][1,4]oxazine] | 42 nM | 724 nM
Cc1nc(-c2c(-c3ccc(F)cn3)nn3c2CC[C@H]2[C@@H]3C2(F)F)c2cn[nH]c2n1 (single isomer, unassigned) [Example 361, (5a*S,6a*R)-6,6-Difluoro-2-(5-fluoropyridin-2-yl)-3-(6-methyl-1H-pyrazolo[3,4-d]pyrimidin-4-yl)-5,5a,6,6a-tetrahydro-4H-cyclopropa[e]pyrazolo[1,5-a]pyridine] | 497 nM | 349 nM
Fc1ccc(-c2nn3c(c2-c2ccn4nccc4c2)OCCC3)nc1 [Example 440, 2-(5-Fluoropyridin-2-yl)-3-(pyrazolo[1,5-a]pyridin-5-yl)-6,7-dihydro-5H-pyrazolo[5,1-b][1,3]oxazine] | 44 nM | 516 nM
CC(=O)Nc1cc(-c2c(-c3ccc(F)cn3)nn3c2CC[C@@H]2C[C@@H]23)ccn1 (stereo in doubt) [Example 341, N-(4-((5a*R,6a*S)-2-(5-Fluoropyridin-2-yl)-5,5a,6,6a-tetrahydro-4H-cyclopropa[e]pyrazolo[1,5-a]pyridin-3-yl)pyridin-2-yl)acetamide] | 2 nM | 24 nM
Cc1cc(-c2c(-c3ncc(F)cc3F)nn3c2OCCC3)c2cn[nH]c2n1 [Example 189, 2-(3,5-Difluoro-2-pyridyl)-3-(6-methyl-1H-pyrazolo[3,4-b]pyridin-4-yl)-6,7-dihydro-5H-pyrazolo[5,1-b][1,3]oxazine] | 10 nM | 320 nM
Fc1ccc(-c2nn3c(c2-c2ccnc4[nH]ncc24)CC2(C3)CC2(F)F)cc1 (single isomer, unassigned) [Example 250, (*S)-1′,1′-Difluoro-2-(4-fluorophenyl)-3-(1H-pyrazolo[3,4-b]pyridin-4-yl)spiro[4,6-dihydropyrrolo[1,2-b]pyrazole-5,2′-cyclopropane]] | 1 nM | 5 nM
CC1(C)Cn2nc(-c3ccc(F)cn3)c(-c3ccnc4ccsc34)c2CO1 [Example 137, 2-(5-Fluoropyridin-2-yl)-6,6-dimethyl-3-(thieno[3,2-b]pyridin-7-yl)-6,7-dihydro-4H-pyrazolo[5,1-c][1,4]oxazine] | 54 nM | 1330 nM
[2H]C([2H])([2H])C1(C([2H])([2H])[2H])CC(O)c2c(-c3ccnc4[nH]ncc34)c(-c3ccc(F)cn3)nn2C1 (stereo not shown) [Example 366, 2-(5-Fluoropyridin-2-yl)-6,6-bis(methyl-d3)-3-(1H-pyrazolo[3,4-b]pyridin-4-yl)-4,5,6,7-tetrahydropyrazolo[1,5-a]pyridin-4-ol] | 14 nM | 176 nM
COCC1(F)CCc2c(-c3cc(C(F)F)nc4[nH]ncc34)c(-c3ccc(F)cn3)nn2C1 (single isomer, unassigned) [Example 307, (*R)-6-(Difluoromethyl)-4-[6-fluoro-2-(5-fluoro-2-pyridyl)-6-(methoxymethyl)-5,7-dihydro-4H-pyrazolo[1,5-a]pyridin-3-yl]-1H-pyrazolo[3,4-b]pyridine] | 183 nM | > 10000 nM
C[C@H]1n2nc(-c3ccc(F)cn3)c(-c3ccnc4[nH]ncc34)c2COC1(C)C (single isomer, unassigned) [Example 173, (*R)-2-(5-Fluoropyridin-2-yl)-6,6,7-trimethyl-3-(1H-pyrazolo[3,4-b]pyridin-4-yl)-6,7-dihydro-4H-pyrazolo[5,1-c][1,4]oxazine] | 42 nM | 840 nM
Fc1ccc(-c2nn3c(c2-c2ccnc4[nH]ncc24)OCCCC3)cc1 [Example 216, 2-(4-Fluorophenyl)-3-(1H-pyrazolo[3,4-b]pyridin-4-yl)-5,6,7,8-tetrahydropyrazolo[5,1-b][1,3]oxazepane] | 2 nM | 38 nM
Fc1ccc(-c2nn3c(c2-c2ccnc4[nH]ncc24)[C@@H]2CC[C@H]3C2)nc1 (single isomer, unassigned) [Example 62, (4*R,7*S)-2-(5-Fluoropyridin-2-yl)-3-(1H-pyrazolo[3,4-b]pyridin-4-yl)-4,5,6,7-tetrahydro-4,7-methanopyrazolo[1,5-a]pyridine] | 6 nM | 55 nM
